What all share (assay type): cell-based
Test [1] concerns uveal melanoma cell lines 92-1 or MP41. Put plainly: 3-day growth inhibition of uveal melanoma cell lines, comparison to clinical PKC and MEK inhibitors. The note with it: for onset of growth inhibition compared to the clinical PKC and MEK inhibitors: 92-1 or MP41; for growth inhibition of uveal melanoma cells compared to the clinical PKC and MEK inhibitors (LXS196, Selumetinib): 92-1 or MP41, 3 days, 0 to 10 micromolar. The protocol: Procedure: Uveal melanoma cell lines, 92-1 or MP41, were plated in 96 well plates in the presence of growth media (see Table 1). […] Cells were incubated at 37° C. for 3 days. After 3 days of treatment, cell growth was measured with Cell-titer glow (Promega), and luminescence was read on an Envision plate reader (Perkin Elmer).
Procedure: Uveal melanoma cell lines, 92-1 or MP41, were plated in 96 well plates in the presence of growth media (see Table 1). BAF ATPase inhibitor (compound 18), PKC inhibitor (LXS196; MedChemExpress), and MEK inhibitor (Selumetinib; Selleck Chemicals) were dissolved in DMSO and added to the cells in a concentration gradient from 0 to 10 micromolar at the time of plating. Cells were incubated at 37° C. for 3 days. After three days of treatment, cell growth was measured with Cell-titer glow (Promega), and luminescence was read on an Envision plate reader (Perkin Elmer).

In test [2] the test system is uveal melanoma cell lines (92-1, MP41, MP38, MP46). Put plainly: 3-day growth inhibition of uveal melanoma and non-small cell lung cancer cell lines. The note with it: 3 days, 0 to 10 micromolar, FIG. 5. The protocol:
Procedure: Uveal melanoma cell lines (92-1, MP41, MP38, MP46) and non-small cell lung cancer cells (NCl-H1299) were plated into 96 well plates with growth media (see Table 1). BRG1/BRM ATPase inhibitor, compound 18, was dissolved in DMSO and added to the cells in a concentration gradient from 0 to 10 micromolar at the time of plating. Cells were incubated at 37° C. for 3 days. After three days of treatment, cell growth was measured with Cell-titer glow (Promega), and luminescence was read on an Envision plate reader (Perkin Elmer).

The test system of test [3] is parental MP41 and PKCi-resistant MP41 uveal melanoma cells. Description: 7-day growth inhibition assay, parental and PKC inhibitor-resistant cells. How it is done: Procedure: Uveal melanoma cell lines (92-1, MP41, MP38, MP46), prostate cancer cell lines (LNCAP), lung cancer cell lines (NClH1299), and immortalized embryonic kidney lines (HEK293T) were plated into 96 well plates with growth media (see Table 1). […] Cells were incubated at 37° C. for 3 days. After 3 days of treatment, the media was removed from the cells, and 30 microliters of TrypLE (Gibco) was added to cells for 10 minutes. Cells were detached from the plates and resuspended with the addition of 170 microliters of growth media. Cells from two DMSO-treated control wells were counted, and the initial number of cells plated at the start of the experiment, were re-plated into fresh-compound containing plates for an additional four days at 37° C. At day 7, cells were harvested as described above.
On day 3 and day 7, relative cell growth was measured by the addition of Cell-titer glo (Promega), and luminescence was measured on an Envision plate reader (Perkin Elmer).
Procedure: MP41 uveal melanoma cells were made resistant to the PKC inhibitor (LXS196; MedChemExpress), by long-term culture in growth media (see Table 1) containing increasing concentrations of the compound, up to 1 micromolar. After 3 months, sensitivity of the parental MP41 cells and the PKC inhibitor (PKCi)-resistant cells to the PKC inhibitor (LXS196) or the BRG1/BRM ATPase inhibitor (compound 18) was tested in a 7-day growth inhibition assay as described above in Example 2.

The structures appear in SMILES notation.

Turning to `CSCC[C@H](NC(=O)c1ccn(S(C)(=O)=O)c1)C(=O)Nc1nc(-c2cccc(-c3ccncc3)c2)cs1` [compound 18, (S)-1-(methylsulfonyl)-N-(4-(methylthio)-1-oxo-1-((4-(3-(pyridin-4-yl)phenyl)thiazol-2-yl)amino)butan-2-yl)-1H-pyrrole-3-carboxamide], in test [1], the “onset of growth inhibition compared to the clinical PKC and MEK inhibitors” value was “faster onset of growth inhibition”; the “growth inhibition of uveal melanoma cells compared to the clinical PKC and MEK inhibitors (LXS196, Selumetinib)” value is “more potent effects on growth inhibition”. Moreover, the “growth inhibition in the uveal melanoma cell lines” value in test [2] is “potent growth inhibition”. Further, the “sensitivity of PKCi-resistant cells relative to parental MP41 cells” value in test [3] (7-day assay, FIG. 7B) is “more sensitive”. Besides, the “growth inhibition of both the PKCi-resistant and parental cell lines” value in test [3] (MP41, 7-day assay, FIG. 7B) was “strong growth inhibition”.

For `CC1(N)CCN(c2cccnc2NC(=O)c2nc(-c3ncccc3C(F)(F)F)cnc2N)CC1` [LXS196, reference compound], in test [3] (7-day assay, FIG. 7A), the “tolerance of PKCi-resistant cells relative to the parental MP41 cell line” value is “could tolerate growth at higher concentrations”.

Take `CSCC[C@H](NC(=O)c1ccc(N)cc1)C(=O)Nc1nc(-c2cccc(-c3ccncc3)c2)cs1` [compound 17, 4-amino-N-[(1S)-3-methylsulfanyl-1-[[4-[3-(4-pyridyl)phenyl]thiazol-2-yl]carbamoyl]propyl]benzamide]: in test [1], the “onset of growth inhibition compared to the clinical PKC and MEK inhibitors” value is “faster onset of inhibition”; the “growth inhibition of uveal melanoma cells compared to the clinical PKC and MEK inhibitors (LXS196, Selumetinib)” value is “comparable growth inhibition”.

Source of the values: patent US20250235432A1, “METHODS OF TREATING CANCERS” (Foghorn Therapeutics Inc., priority 2018, published 2025).
